For assay [1], the system named is voltage gated outward current (Kv channels) in INS-1 cells. The assay can be described thus: Patch clamp measurement of whole cell outward current in INS-1 cells. The class given is cell-based, rat. The following applies: for 4-AP sensitive current: INS-1 cells after 4 hours 100 nM dexamethasone; for inhibition of outward current: untreated INS-1 cells. The method, then:
Cells were treated prior to the experiment with 100 nm dexamethasone for 4 h. (2A) whole cell current was induced by 200 ms voltage pulses increasing by 10 mv steps from −70 mv to +50 mv. (2B) Sensitivity to 4-ap (0.1 and 1 mm) and tea (1 and 10 mm) was tested in cells before (black columns) and after dexamethasone treatment (white columns). Voltage pulses of 200 ms duration from −70 to 50 mv were applied. Shown are means±sem for the indicated number of experiments. * denotes significance (p<0.05) to current in control, non treated cells at the same inhibitor concentration. Ins-1 cells were cultured as described before (Abel et al., 1996; Asfari et al., 1992). The external patch clamp solution contained (in mmol/l): 140 NaCl, 5.6 KCl, 1.2 MgCl2, 2.6 CaCl2, 0.5 glucose and 10 HEPES, PH 7.4. The internal solution contained (in mmol/l): 30 KCL, 95 K^+-gluconate, 1 MgCl2, 1.2 NaH2PO4, 4.8 Na2HPO4, 5 Na2ATP, 1 Na3GTP, 5 mmol/l EGTA, PH 7.2. An Epc9 Patch Clamp Amplifier (Heka Electronic, Lambrecht, Germany) Was Used For Current Measurements.
INS-1 cells were cultured for 2-4 days on glass cover slips coated with poly-L-ornithine (10 mg/l Sigma, Munich, Germany) at appropriate cell densities (1.2×10^6 cells/ml). The cover slips were mounted in a bath chamber on the stage of an inverted microscope (IM, Zeiss, Jena, Germany). The cells were kept at room temperature or at 34° C. as indicated for each experiment and superfused with a solution containing (in mmol/l): 140 NaCl, 5.6 KCl, 1.2 MgCl2, 2.6 CaCl2, 0.5 glucose and 10 HEPES, pH 7.4. The patch clamp pipettes (Clark-Medical, Reading, Great Britain) with a resistance of 4-6 MΩ were pulled using a DMZ-universal puller (Zeitz, Augsburg, Germany). They were filled with an internal solution containing (in mmol/l): 30 KCl, 95 K^+-gluconate, 1 MgCl2, 1.2 NaH2PO4, 4.8 Na2HPO4, 5 Na2ATP, 1 Na3GTP, 5 mmol/l EGTA, pH 7.2. An EPC9 patch clamp amplifier (Heka Electronic, Lambrecht, Germany) was used for current measurements. Only stable current measurements, i.e. when currents reached at least 90% of control current after removal of the respective inhibitory drug, were used for analysis.
(The patch-clamp technique gives a direct electrical read-out from membranes.)

The subject of a further assay is INS-1 cells. The assay can be described thus: Glucose-induced insulin secretion of INS-1 cells. The class given is cell-based, rat. Conditions: INS-1 cells pretreated with 100 nM dexamethasone. The method, then:
Prior to the experiment INS-1 cells were treated in culture with dexamethasone, 100 nM, for 4 h. Cells were washed twice and preincubated in HEPES buffered salt solution containing (in mmol/l): 140 NaCl, 5.6 KCl, 1.2 MgCl2, 2.6 CaCl2, 0.5 glucose, 10 HEPES and 5 g/l bovine serum albumin, pH 7.4 at 37° C. Thereafter cells were incubated for 30 min at 37° C. in fresh solution containing the test substances at the appropriate concentrations. Insulin was measured by radioimmunoassay using rat insulin antiserum (Linco, Biotrend Chemikalien GmbH, Cologne, Germany), I^125-insulin (CIS Diagnostik GmbH, Dreieich, Germany) and rat insulin (Novo Nordisk, Mainz, Germany) as standard or by an Insulin Elisa kit (Mercodia, Uppsala, Sweden).
INS-1 cells (kindly provided by CB Wollheim, University of Geneva, Switzerland) derived from a rat insulinoma were cultured in HEPES-buffered RPMI 1640 supplemented with 10% fetal calf serum (Biochrom, Berlin, Germany), 1 mmol/l HEPES, 1 mmol/l Na pyruvate, 10 μmol/l β-mercaptoethanol (Sigma, Munich, Germany) and antibiotics as described elsewhere (Abel et al., 1996; Asfari et al., 1992). Cells were seeded at a cell density of 2.0-2.5 10^5 cells/ml in 24-well culture plates and cultured for 2 days prior to the experiment. Cells were washed twice with HEPES buffered salt solution containing (in mmol/l): 140 NaCl, 5.6 KCl, 1.2 MgCl2, 2.6 CaCl2, 0.5 glucose, 10 HEPES and 5 g/l bovine serum albumin, pH 7.4. and preincubated for 30 min at 37° C. […] Incubations were stopped on ice, medium removed and frozen at −20° C. until insulin released into the supernatant was measured by radioimmunoassay using rat insulin antiserum (Linco, Biotrend Chemikalien GmbH, Cologne, Germany), I^125-insulin (CIS Diagnostik GmbH, Dreieich, Germany) and rat insulin (Novo Nordisk, Mainz, Germany) as standard or an insulin Elisa kit (Mercodia, Uppsala, Sweden). Insulin content was measured after extraction with acid ethanol (1.5 (v/v) % HCl/75% ethanol) over night at 4° C.

The subject of assay [2] is SGK1 protein in INS-1 cells. The assay can be described thus: Western blotting of SGK1 protein in INS-1 cells. The format is cell-based, rat. In general terms: In western blotting, separated proteins are transferred to a membrane and probed.
Procedure: INS-1 cells were treated with 100 nM dexamethasone or vehicle (DMSO) in culture for the indicated periods of time.
Plots were incubated with antibodies against SGK1 (New England Biolabs, Beverly, Mass., USA). Bound antibody was visualized using a second antibody coupled to horse radish peroxidase.
Thereafter, culture medium was removed and cells were lysed in a solution containing 300 mM NaCl, 20 mM Tris HCl, pH 7.4, 1% (v/v) Triton X-100, 1% Sodiumdeoxycholate, 0.1% SDS, 2.5 mM EDTA, 10 μg/ml Pepstatin A, 10 μg/ml Aprotinin and 0.1 mM PMSF. Total cellular protein, 50 μg, quantified by Coomassie Blue G staining (Bradford dye assay, Biorad Laboratories GmbH, Munich, Germany) was subjected to SDS-PAGE (1%), and plotted onto a nitrocellulose membrane (Schleicher and Schuell, Dassel, Germany). Plots were incubated with antibodies against SGK1 (New England Biolabs, Beverly, Mass., USA). Bound antibody was visualized using a second antibody coupled to horse radish peroxidase.
Another assay deals with Kv1.5 mRNA in INS cells. The assay can be described thus: Real time PCR of Kv1.5 mRNA in INS-1 cells. The class given is cell-based, rat. Conditions: 100 nM dexamethasone, within 4 hours.
Assay [3] has as its system SGK1 transcript levels in INS-1 cells. The assay can be described thus: Real time PCR of SGK1 mRNA in INS-1 cells. The format is cell-based, rat. The following applies: with 100 nM dexamethasone. For orientation: Quantitative PCR measures a nucleic acid by following its amplification.
The target in assay [4] is nuclear glucocorticoid receptor (Mus musculus, UniProt P06537). The following applies: Lambillotte et al., 1997; cited from earlier work.
Chain of nuclear glucocorticoid receptor (P06537 whole entry): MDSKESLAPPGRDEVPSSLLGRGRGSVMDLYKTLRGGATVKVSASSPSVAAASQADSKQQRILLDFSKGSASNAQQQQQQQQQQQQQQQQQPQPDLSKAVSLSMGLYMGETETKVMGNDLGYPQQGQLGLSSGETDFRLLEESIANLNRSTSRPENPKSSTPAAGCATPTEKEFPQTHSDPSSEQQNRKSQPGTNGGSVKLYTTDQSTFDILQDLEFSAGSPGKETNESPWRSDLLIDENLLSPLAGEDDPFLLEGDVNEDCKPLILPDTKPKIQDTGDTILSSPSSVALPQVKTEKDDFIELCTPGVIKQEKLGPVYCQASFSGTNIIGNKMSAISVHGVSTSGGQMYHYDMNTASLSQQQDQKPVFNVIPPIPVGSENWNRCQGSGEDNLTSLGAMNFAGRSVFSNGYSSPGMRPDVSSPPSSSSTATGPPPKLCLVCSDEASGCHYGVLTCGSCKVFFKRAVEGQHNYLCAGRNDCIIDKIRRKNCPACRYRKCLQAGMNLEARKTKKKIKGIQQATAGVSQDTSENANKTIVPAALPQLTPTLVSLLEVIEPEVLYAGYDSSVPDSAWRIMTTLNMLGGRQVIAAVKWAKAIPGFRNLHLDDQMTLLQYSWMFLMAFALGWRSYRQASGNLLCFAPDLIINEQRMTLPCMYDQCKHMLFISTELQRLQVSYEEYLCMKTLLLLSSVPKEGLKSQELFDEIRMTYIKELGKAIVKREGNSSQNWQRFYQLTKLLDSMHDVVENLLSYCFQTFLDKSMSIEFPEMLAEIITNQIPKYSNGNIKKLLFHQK

Regarding `Nc1ccncc1` [4-AP], in assay [1] (0.1 mM 4-AP), the 4-AP sensitive current turned out to be 28% and the “inhibition of outward current” value amounted to 10%. Further, in assay [1] (1 mM 4-AP), the 4-AP sensitive current is given as 40% and the “inhibition of outward current” value is 28%. In addition, the “effect on dexamethasone-induced inhibition of insulin secretion” value in the assay with INS-1 cells was “reversed”.
Broadly, the inhibition is the percentage by which the read-out fell short of the control. `C[C@@H]1C[C@H]2[C@@H]3CCC4=CC(=O)C=C[C@]4(C)[C@@]3(F)[C@@H](O)C[C@]2(C)[C@@]1(O)C(=O)CO` [dexamethasone]: in assay [2] (100 nM dexamethasone), the “time until SGK1 protein / expression appears” value was at most 2 h. The “increase of abundance of Kv1.5 mRNA (factor)” value with Kv1.5 mRNA in INS cells is on record as “approx. 10”. The inhibition at 0.1 µM in the assay with INS-1 cells (Rattus norvegicus, INS1) is 62%.
Consider `CC[N+](CC)(CC)CC` [TEA], for which the “effect on dexamethasone-induced inhibition of insulin secretion” value in the assay on INS-1 cells was “reversed”.
As for `CC#C[C@]1(O)CC[C@H]2[C@@H]3CCC4=CC(=O)CCC4=C3[C@@H](c3ccc(N(C)C)cc3)C[C@@]21C` [RU486, mifepristone], the “effect on dexamethasone-induced increase of SGK1 mRNA transcript levels” value in assay [3] is listed as “completely abrogated”. Moreover, the “effect on dexamethasone-induced SGK1 expression” value in assay [2] (RU486 at 1 μmol/l, with 100 nM dexamethasone) was “completely inhibited”. Further, in assay [2] (with 100 nM dexamethasone), the “effect on dexamethasone-induced increase in SGK1 protein abundance” value is listed as “fully reversed”. The “effect on dexamethasone-induced inhibition of insulin secretion” value in assay [4] is recorded as “completely abolished”.
